According to patent publication US9814754B2, “Combinations with a backbone-cyclized peptide” (POLYPHOR AG, priority 2012, dated 2017):

What was measured:
Assay type in all cases: in vivo
[1] = test system: Pseudomonas aeruginosa clinical isolate PA18298; experiment: Murine pneumonia model, compound 1 in combination with amikacin (Example 4); conditions: lung
Description: The efficacy and ED50 of the compound of formula (I) (“compound 1”) in combination with amikacin was determined against Pseudomonas aeruginosa clinical isolate PA18298 in a pneumonia model in mice. Colony counts in lung were determined at 20 hours post treatment.
(§1) Fresh overnight colonies of PA18298 from a 5% Horse Blood Agar plate were suspended in 0.9% sterile saline to approximately 10^8 CFU/ml and further diluted to approximately 5×10^7 CFU/ml. Female mice (DBA/2, outbred, 18-22 g, Charles River) were anesthetized with 0.1 ml of Zoletil and inoculated via the nose with a pipette with 0.05 ml of the bacteria suspension containing approximately 10^6 CFU. 4 hours after inoculation, the mice were treated orally with 45 μl neurophen (20 mg ibuprofen/ml corresponding to approximately 30 mg/kg) as pain relief.
(§2) 175 mg of amikacin (Sigma) were dissolved in 5 ml 0.9% sterile saline to a concentration of 35 mg/ml and further diluted with saline to 3 mg/ml. The mice were treated subcutaneously with 0.2 ml in the neck region with a single dose at 3 hours post infection corresponding to 30 mg/kg on the basis of a mean animal weight of 20 g.
One vial containing 10 mg of active compound 1 was dissolved in 2 ml 0.9% sterile saline to a concentration of 5 mg/ml and further diluted with saline […], 1, 0.55, 0.275 and 0.137 mg/ml. The mice were treated subcutaneously with 0.2 ml in the neck region with a single dose at 4 hours post infection with a dose calculation based on a mean animal weight of 20 g. Colistin was used as a control in the same manner with a fixed dose of 20 mg/kg.
(§3) Colony counts were determined post inoculation at 4 hours (untreated mice) and 24 hours (treated and vehicle-only treated mice). Immediately after the mice were sacrificed, the lungs were collected and frozen at −20° C. After thawing, the organs were homogenized in 1 ml 0.9% saline. Each sample was then 10 fold diluted in saline and 20 μl spots were applied on blood agar plates. All agar plates were incubated 18-24 hours at 35° C. in ambient air.
The CFU/ml in the inoculum was determined to 7.4 log10 CFU/ml corresponding to 6.17 log10 CFU/mouse.
At 4 hours after inoculation the mean log 10 CFU/lung was 5.06 and the CFU level declined to 1.55 mean log 10 CFU/lung after 24 hours in the vehicle group.

[2] = test system: Pseudomonas aeruginosa clinical isolate PA9349; experiment: Murine pneumonia model, compound 1 in combination with ciprofloxacin (Example 3); conditions: colistin 20 mg/kg alone, lung
Description: Colony counts in lung were determined at 20 hours post treatment.
Fresh overnight colonies of PA9349 from a 5% Horse Blood Agar plate were suspended in 0.9% sterile saline to approximately 10^8 CFU/ml and further diluted to approximately 10^7 CFU/ml. Female mice (C57BL/6 […], outbred, 20-25 g, Hellenic Pasteur Institute) were anesthetized with ether and inoculated via the nose with a pipette with 0.05 ml of the bacteria suspension containing approximately 10^6 CFU. After inoculation, mice were treated with paracetamol suppositories as a pain relief.
The mice were treated subcutaneously with 0.2 ml in the neck region with a single dose at 3 hours post infection corresponding to 20 mg/kg on the basis of a mean animal weight of 20 g.
1 vial was further diluted with saline to 1, 0.8 and 0.4 mg/ml. The mice were treated subcutaneously with 0.25 ml (25 mg/kg dose) or 0.2 ml (for all other doses) in the neck region with a single dose at 4 hours post infection with a dose calculation based on a mean animal weight of 20 g.
as §3

[3] = test system: Pseudomonas aeruginosa clinical isolate PA18298; experiment: Murine pneumonia model, compound 1 alone (Reference 3); conditions: 20 mg/kg, positive control, lungs, p<0.001
Description: Efficacy in Murine Pneumonia Model Against Pseudomonas aeruginosa PA18298 and Estimation of ED50
The efficacy and ED50 of the compound of formula (I) (“compound 1”) was determined against Pseudomonas aeruginosa clinical isolate PA18298 in a pneumonia model in mice. Colony counts in the lungs were determined at 18-20 hours post treatment.
as §1, with “4×10^7” for “5×10^7”, “Zoletil (tiletamine+zolazepam)” for “Zoletil”, “1×10^6” for “10^6”
One vial containing 10 mg of active compound 1 was dissolved in 2 ml 0.9% sterile saline to a concentration of 5 mg/ml and was further diluted with saline to 2, 1, 0.75, 0.55, 0.275 and 0.137 mg/ml. The mice were treated subcutaneously with 0.2 ml in the neck region with a single dose at 4 hours post infection with a dose calculation based on a mean animal weight of 20 g. As positive control colistin was used in the same manner with a fixed dose of 20 mg/kg.
as §3, with “10-fold” for “10 fold”, “18-48” for “18-24”
The CFU/ml in the inoculum was determined to 7.49 log10 CFU/ml corresponding to 6.20 log10 CFU/mouse.
At 4 hours after infection the mean log10 CFU/lung was 5.05 and the CFU level declined to 2.62 at 24 hours post inoculation in the vehicle-only group.

[4] = test system: Pseudomonas aeruginosa clinical isolate PAX11045; experiment: Murine pneumonia model, compound 1 in combination with ertapenem (Example 1); conditions: 50 mg/kg alone, lung, p<0.001
Description: The efficacy and ED50 of the compound of formula (I) (“compound 1”) in combination with ertapenem was determined against Pseudomonas aeruginosa clinical isolate PAX11045 in a pneumonia model in mice. Colony counts in lung were determined at 20 hours post treatment.
as §1, with “PAX11045” for “PA18298”
1 g of ertapenem (Invanz™, MSD Denmark Aps) was dissolved in 10 ml 0.9% sterile saline to a concentration of 100 mg/ml and further diluted with saline to 5 mg/ml. The mice were treated subcutaneously with 0.2 ml in the neck region with a single dose at 3 hours post infection corresponding to 50 mg/kg on the basis of a mean animal weight of 20 g.
(§4) The mice were treated subcutaneously with 0.2 ml in the neck region with a single dose at 4 hours post infection with a dose calculation based on a mean animal weight of 20 g.
as §3
The CFU/ml in the inoculum was determined to 7.65 log10 CFU/ml corresponding to 6.35 log10 CFU/mouse.
At 4 hours after infection the mean log10 CFU/lung was 5.14 and the CFU level remained at a similar level after 24 hours in the vehicle-only group.

[5] = test system: Pseudomonas aeruginosa clinical isolate PAX11045; experiment: Murine pneumonia model, compound 1 in combination with azithromycin (Example 2); conditions: 50 mg/kg alone, lung
Description: The efficacy and ED50 of the compound of formula (I) (“compound 1”) in combination with azithromycin was determined against Pseudomonas aeruginosa clinical isolate PAX11045 in a pneumonia model in mice. Colony counts in lung were determined at 20 hours post treatment.
as §1, with “PAX11045” for “PA18298”, “17-23” for “18-22”
as §2, with “480 mg” for “175 mg”, “of azithromycin (Zitromax™, Pfizer)” for “of amikacin (Sigma)”, “in 4.8” for “in 5”, “of 100” for “of 35”, “to 5” for “to 3”, “to 50” for “to 30”
as §4, §3

NCC[C@H](O)C(=O)N[C@@H]1C[C@H](N)[C@@H](O[C@H]2O[C@H](CN)[C@@H](O)[C@H](O)[C@H]2O)[C@H](O)[C@H]1O[C@H]1O[C@H](CO)[C@@H](O)[C@H](N)[C@H]1O [amikacin, reference compound]
effect on bacterial loads ([1]; amikacin 30 mg/kg alone): some effects on reducing the bacterial loads

colistin [reference compound]
effect on bacterial loads [2]: no or only slight effects on the bacterial loads
effect on bacterial loads [3]: some effect on reducing the bacterial loads
effect on bacterial loads ([1]; colistin 20 mg/kg, control): some effects on reducing the bacterial loads

C[C@@H](O)[C@H]1C(=O)N2C(C(=O)O)=C(S[C@@H]3CN[C@H](C(=O)Nc4cccc(C(=O)O)c4)C3)[C@H](C)[C@H]12 [ertapenem, reference compound]
effect on bacterial loads [4]: significant effect on reducing the bacterial loads

CC[C@H]1OC(=O)[C@H](C)[C@@H](O[C@H]2C[C@@](C)(OC)[C@@H](O)[C@H](C)O2)[C@H](C)[C@@H](O[C@@H]2O[C@H](C)C[C@H](N(C)C)[C@H]2O)[C@](C)(O)C[C@@H](C)CN(C)[C@H](C)[C@@H](O)[C@]1(C)O [azithromycin, reference compound]
effect on bacterial loads [5]: no effect on the bacterial loads
